Usually IC50 stands for the point on the concentration scale where inhibition reaches its midpoint. Low values mean higher potency, high ones lower potency. Broadly, the Ki is a dissociation constant, usually derived from enzyme kinetics or from competition with a known ligand. Read a low Ki as tighter binding.

Among the data in BindingDB's records for doi:10.1002/1439-7633(20020902)3:9 (New York University, 2002) are IC50 and Ki values, retold here.

Chain of Inositol-trisphosphate 3-kinase A (P23677 whole entry): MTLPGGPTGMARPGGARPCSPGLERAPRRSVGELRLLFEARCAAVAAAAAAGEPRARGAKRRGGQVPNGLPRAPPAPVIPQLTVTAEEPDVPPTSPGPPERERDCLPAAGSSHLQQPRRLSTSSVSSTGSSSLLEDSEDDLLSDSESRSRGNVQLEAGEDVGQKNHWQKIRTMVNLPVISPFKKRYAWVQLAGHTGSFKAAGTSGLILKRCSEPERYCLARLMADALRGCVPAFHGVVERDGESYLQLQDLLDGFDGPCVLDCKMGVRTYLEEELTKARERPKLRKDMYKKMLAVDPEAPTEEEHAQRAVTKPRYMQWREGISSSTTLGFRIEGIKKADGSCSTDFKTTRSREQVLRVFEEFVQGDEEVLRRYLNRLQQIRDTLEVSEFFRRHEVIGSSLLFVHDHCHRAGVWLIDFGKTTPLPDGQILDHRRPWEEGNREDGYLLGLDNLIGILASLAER

The experiment concerns the target Inositol-trisphosphate 3-kinase A (Homo sapiens, UniProt P23677). Nature of the experiment: Inhibition Assay. Conditions: pH 8; 37 °C. Here is the method:
IP3K reactions were carried out in a 100ul solution that contained Tris-Cl, EGTA, ATP, DTT, 2,3-diphosphoglycerate, D-l(1,4,5)P3, [3H]-l(1,4,5)P3 and various amounts of synthetic purine analogues.
In turn, `COc1ccc(CNc2nc(NCc3cccc(C(F)(F)F)c3)nc3c2ncn3C(C)C)cc1` [Purine, 11] yielded an IC50 of more than 200 µM.

With `Clc1ccc(CNc2nc(NCc3ccccc3)c3[nH]cnc3n2)cc1` [Purine, 7], inhibition was half-maximal at 138 µM (IC50).

In the case of `O=[N+]([O-])c1ccc(CNc2nc(NCc3ccccc3C(F)(F)F)nc3nc[nH]c23)cc1` [Purine, 17], the IC50 was found to be 18.2 µM.

Turning to `O=[N+]([O-])c1ccc(CNc2nc(NCc3ccc(C(F)(F)F)cc3)nc3nc[nH]c23)cc1` [Purine, 18], the IC50 is 67.6 µM.

The compound `Clc1ccc(CNc2nc(Nc3ccccc3)c3[nH]cnc3n2)cc1` [Purine, 10] registered an IC50 of 150 µM.

The compound `O=[N+]([O-])c1ccc(CNc2nc(NCc3cccc(C(F)(F)F)c3)nc3[nH]cnc23)cc1` [Purine, 5] displayed a half-maximal inhibitory concentration (IC50) of 10.2 µM and a Ki of 4.3 µM.

Take `Clc1cccc(CNc2nc(NCc3ccccc3)c3[nH]cnc3n2)c1` [Purine, 6]: the IC50 was found to be 150 µM.

With `O=[N+]([O-])c1ccc(CNc2nc(NCc3ccccc3Cl)nc3nc[nH]c23)cc1` [Purine, 22], inhibition was half-maximal at 28 µM (IC50).

`CC(C)n1cnc2c(Nc3cccc(Cl)c3)nc(NCc3cccc(C(F)(F)F)c3)nc21` [Purine, 12] registered an IC50 of more than 200 µM.

Take `Cn1cnc2c(NCc3ccc(N)cc3)nc(NCc3cccc(C(F)(F)F)c3)nc21` [Purine, 1]: the IC50 turned out to be 57.1 µM.

In turn, `c1ccc(CNc2nc(NCc3ccc4ccccc4c3)nc3nc[nH]c23)cc1` [Purine, 13] gave an IC50 of 63 µM.

In turn, `O=[N+]([O-])c1ccc(CNc2nc(NCc3ccc(F)cc3)nc3nc[nH]c23)cc1` [Purine, 21] returned an IC50 of 28.8 µM. This IC50 is about 2.2-fold lower than that of the compound before.

Consider `Fc1ccc(CNc2nc(NCc3ccccc3)c3[nH]cnc3n2)cc1` [Purine, 9], for which the midpoint of inhibition, the IC50, lay at 220 µM.

With `Nc1ccc(CNc2nc(NCc3cccc(C(F)(F)F)c3)nc3nc[nH]c23)cc1` [Purine, 2], the IC50 is 13.5 µM. Compared with the last compound, the IC50 is about 16-fold lower.

In the case of `O=[N+]([O-])c1ccc(CNc2nc(NCc3ccc(Cl)cc3)nc3nc[nH]c23)cc1` [Purine, 24], 12.7 µM corresponded to half-maximal inhibition (IC50).

Compound `NCc1cccc(CNc2nc(NCc3ccccc3)c3[nH]cnc3n2)c1` [Purine, 14] yielded an IC50 of more than 200 µM.

`O=[N+]([O-])c1ccc(CNc2nc(NCc3ccccc3F)nc3nc[nH]c23)cc1` [Purine, 19] showed an IC50 of 23.4 µM.

Consider `FC(F)(F)c1ccc(CNc2nc(NCc3ccc(C(F)(F)F)cc3)c3[nH]cnc3n2)cc1` [Purine, 8], for which the IC50 was 102 µM.

`CC(Nc1nc(NCc2ccccc2)c2[nH]cnc2n1)c1ccccc1` (stereo not given) [Purine, 15]: the half-maximal inhibitory concentration (IC50) stood at 117 µM.

For `FC(F)(F)c1cccc(CNc2nc(NCc3ccccc3)c3nc[nH]c3n2)c1` [Purine, 3], it took 13.7 µM to reach half-maximal inhibition (IC50).

The compound `O=[N+]([O-])c1ccc(CNc2nc(NCc3cccc(Cl)c3)nc3nc[nH]c23)cc1` [Purine, 23] showed an IC50 of 20 µM.

`O=[N+]([O-])c1ccc(CNc2nc(NCc3cccc(F)c3)nc3nc[nH]c23)cc1` [Purine, 20]: the IC50 was 49 µM. Against the preceding compound, the IC50 is about 2.5-fold higher.

On to `O=[N+]([O-])c1cccc(CNc2nc(NCc3ccccc3Cl)nc3nc[nH]c23)c1` [Purine, 16], for which the IC50 was more than 200 µM.

Regarding `FC(F)(F)c1cccc(CNc2nc(NCc3ccccc3)c3ncn(C4CCCCO4)c3n2)c1` (stereo not given) [Purine, 4], the IC50 was determined as 43.4 µM.
